Patent US20070179060A1, “6-(Poly-substituted aryl)-4-aminopicolinates and their use as herbicides” (priority 2006, published 2007)

What was measured:
Echinochloa crus-galli = test: Herbicidal activity in transplanted paddy rice; assay type: in vivo; settings: Echinochloa crus-galli, 504 h, paddy water application, after 3 weeks, read-out: % Control ECHCG; for pest or weed control at 17.5 g/ha: 17.5 g ai/ha; for pest or weed control at 70 g/ha: 70 g ai/ha
Method in brief: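 Rice seedlings transplanted at second to third leaf stage and weeds from seed were grown in flooded mud pots in a greenhouse (~29/26 °C, 14 h photoperiod). At second or third true leaf stage, acetone stock solutions were injected into the paddy water at the high rate and ½× to 1/16× dilutions. Solvent-blank controls.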

Galium aparine = test: Postemergence herbicidal activity in cereal crops; assay type: in vivo; settings: Galium aparine, post-emergence, 480 h, post-emergent, after 20-22 days, read-out: % Control GALAP; for pest or weed control at 17.5 g/ha: 17.5 g ai/ha; for pest or weed control at 35 g/ha: 35 g ai/ha
Method in brief: (§1)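 Plants are raised in a greenhouse for 7-36 days and used at the second to third true leaf stage. Compounds in a mixed organic–aqueous carrier with crop oil and surfactant are sprayed postemergence at 187 L/ha. Treated plants return to the greenhouse with sub-irrigation, alongside blank-sprayed controls.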

Lamium purpureum = test: Postemergence herbicidal activity in cereal crops; assay type: in vivo; settings: Lamium purpureum, post-emergence, 480 h, post-emergent, after 20-22 days, read-out: % Control LAMPU; for pest or weed control at 17.5 g/ha: 17.5 g ai/ha; for pest or weed control at 35 g/ha: 35 g ai/ha
Method in brief: as §1

Papaver rhoeas = test: Postemergence herbicidal activity in cereal crops; assay type: in vivo; settings: Papaver rhoeas, post-emergence, 480 h, post-emergent, after 20-22 days, read-out: % Control PAPRH; for pest or weed control at 17.5 g/ha: 17.5 g ai/ha; for pest or weed control at 35 g/ha: 35 g ai/ha
Method in brief: as §1

Veronica persica = test: Postemergence herbicidal activity in cereal crops; assay type: in vivo; settings: Veronica persica, post-emergence, 480 h, post-emergent, after 20-22 days, read-out: % Control VERPE; for pest or weed control at 17.5 g/ha: 17.5 g ai/ha; for pest or weed control at 35 g/ha: 35 g ai/ha
Method in brief: as §1

barley (Hordeum vulare) = test: Postemergence herbicidal activity in cereal crops; assay type: in vivo; settings: Hordeum, post-emergence, 480 h, crop, post-emergent, after 20-22 days, read-out: % Control HORVS; for pest or weed control at 17.5 g/ha: 17.5 g ai/ha; for pest or weed control at 35 g/ha: 35 g ai/ha
Method in brief: as §1

[1] = system: wheat (Triticum aestivum); test: Postemergence herbicidal activity in cereal crops; assay type: in vivo; settings: Triticum aestivum, post-emergence, 480 h, crop, post-emergent, after 20-22 days, read-out: % Control TRZAS; for plant injury at 17.5 g/ha: 17.5 g ai/ha; for plant injury at 35 g/ha: 35 g ai/ha
Method in brief: as §1

Structure (SMILES) | pest or weed control at 17.5 g/ha (Echinochloa crus-galli) | pest or weed control at 17.5 g/ha (Galium aparine) | pest or weed control at 17.5 g/ha (Lamium purpureum) | pest or weed control at 17.5 g/ha (Papaver rhoeas) | pest or weed control at 17.5 g/ha (Veronica persica) | pest or weed control at 17.5 g/ha (barley (Hordeum vulare)) | plant injury at 17.5 g/ha [1] | melting point | pest or weed control at 70 g/ha (Echinochloa crus-galli) | pest or weed control at 35 g/ha (Galium aparine) | pest or weed control at 35 g/ha (Lamium purpureum) | pest or weed control at 35 g/ha (Papaver rhoeas) | pest or weed control at 35 g/ha (Veronica persica) | pest or weed control at 35 g/ha (barley (Hordeum vulare)) | plant injury at 35 g/ha [1] | pest or weed control at 35 g/ha (Echinochloa crus-galli; 35 g ai/ha)
COC(=O)c1nc(-c2ccc(Br)c(OC)c2F)cc(N)c1Cl [Compound 27, 4-amino-6-(4-bromo-2-fluoro-3-methoxyphenyl)-3-chloro-pyridine-2-carboxylic acid methyl ester] | 45% | 99% | 100% | 100% | 50% | 5% | 5% | 164 to 165 °C | – | – | – | – | – | – | – | –
COC(=O)c1nc(-c2ccc(Cl)c(OC)c2F)cc(N)c1Cl [Compound 42, 4-Amino-3-chloro-6-(4-chloro-2-fluoro-3-methoxyphenyl)pyridine-2-carboxylic acid methyl ester] | 40% | 99% | 100% | 99% | 60% | 5% | 5% | – | – | – | – | – | – | – | – | –
COC(=O)c1nc(-c2ccc(Cl)c(OC)c2Cl)cc(N)c1Cl [Compound 44, 4-Amino-3-chloro-6-(2,4-dichloro-3-methoxyphenyl)pyridine-2-carboxylic acid methyl ester] | – | – | – | – | – | – | – | 168 to 170 °C | 50% | 65% | 99% | 90% | 60% | 5% | 10% | –
COC(=O)c1nc(-c2c(F)cc(Cl)c(OC)c2F)cc(N)c1Cl [Compound 58, 4-Amino-3-chloro-6-(4-chloro-2,6-difluoro-3-methoxyphenyl)pyridine-2-carboxylic acid, methyl ester] | 30% | 100% | 100% | 99% | 60% | 0% | 0% | – | – | – | – | – | – | – | – | –
COC(=O)c1nc(-c2ccc(F)c(OC)c2F)cc(N)c1Cl [Compound 70, 4-Amino-3-chloro-6-(2,4-difluoro-3-methoxyphenyl)pyridine-2-carboxylic acid, methyl ester] | – | 99% | 100% | 99% | 60% | 0% | 0% | – | 45% | – | – | – | – | – | – | –
COC(=O)c1nc(-c2c(F)cc(Br)c(OC)c2F)cc(N)c1Cl [Compound 77, 4-Amino-6-(4-bromo-2,6-difluoro-3-methoxyphenyl)-3-chloropyridine-2-carboxylic acid, methyl ester] | – | 99% | 100% | 99% | 65% | 0% | 0% | – | – | – | – | – | – | – | – | 70%
COc1c(Cl)ccc(-c2cc(N)c(Cl)c(C(=O)O)n2)c1F [Compound 100, 4-Amino-3-chloro-6-(4-chloro-2-fluoro-3-methoxyphenyl)pyridine-2-carboxylic acid] | 30% | 90% | 100% | 95% | 65% | 5% | 10% | – | – | – | – | – | – | – | – | –
COc1c(Cl)ccc(-c2cc(N)c(Cl)c(C(=O)O)n2)c1Cl [Compound 103, 4-Amino-3-chloro-6-(2,4-dichloro-3-methoxyphenyl)pyridine-2-carboxylic acid] | – | – | – | – | – | – | – | 179 to 180 °C (dec.) | 40% | 60% | 95% | 100% | 75% | 0% | 0% | –
